The record followed here is article PMC12040169 (PLOS Biology, 2025).

Structures are written as SMILES.

The data set can be described thus: in vitro. Conditions: human, hela cells, % viability.

For the molecule `O=C(Nc1cccnc1)c1cc2cc(F)ccc2[nH]1` [CBK107272], the viability at 28.5 h, 10 µM was 93.2%.
Under `O=C(O)CCC(=O)Nc1ccc(NC(=O)C2CCCCC2)c(Cl)c1` [CBK268867] stands 89.3%; under `Cc1cccc(C)c1NC(=O)CN1CCC(Oc2cncc(OCc3cccnc3)n2)C1` (stereo not drawn) [CBK084460], 87.6%.
Under `CCn1nc(C)c(-c2cncn2CC(C)N2CCCCC2)c1C` (stereo not drawn) [CBK281808] stands 102%.
For the molecule `COc1ccc([C@@]23CC[C@@H](NC(=O)Nc4cccc(S(=O)(=O)C(F)(F)F)c4)C[C@@H]2N(C)CC3)cc1OC` [CBK051275T], the viability at 28.5 h, 10 µM is 99%.
Turning to `CCOC(=O)C1CC2CCC1C[C@]21NC(=O)c2ccccc2N1` (stereo partly drawn) [CBK284441], the viability at 28.5 h, 10 µM was 93.4%.
For the molecule `CCCCN(C)c1c(C)nc2ccc(C(=O)N(C)CCCN(C)C)cn12` [CBK146006], the viability at 28.5 h, 10 µM was found to be 103%.
Under `COc1ccc(-n2c(SCC(=O)Nc3cccc(C(C)=O)c3)nc3sc(C)c(C)c3c2=O)cc1` [CBK091806] stands 97.6%; under `O=C(Nc1ccccn1)C1CCCN1c1nc(O)cc(C(F)(F)F)n1` (stereo not drawn) [CBK004254], 91%.
In the case of `O=C1NC2(CCNCC2)Oc2ccc(-c3cccc4ncccc34)cc21` [CBK083775T], the viability at 28.5 h, 10 µM worked out at 95.3%.
Under `O=C(Cc1ccsc1)N1CCC(c2cc3cccnc3[nH]2)CC1` [CBK285000] stands 85.6%; under `COc1ccc(C2CC(=O)C3=C(C2)NC(C)=C(C#N)C3c2cccc(F)c2)cc1` (stereo not drawn) [CBK293922], 91.6%; under `CCn1cc(NC(=S)Nc2sc3c(c2C(=O)OC)CCC(C)C3)c(C(N)=O)n1` (stereo not drawn) [CBK267032], 105%.
Under `COc1ccc(C(=O)Nc2ccccc2O)cc1S(=O)(=O)N1CCCCC1` [CBK269665] stands 92.6%; under `c1ccc(COc2ccccc2-c2cc(N3CCN(c4ccccn4)CC3)ncn2)cc1` [CBK037793], 97.4%.
Under `Cc1nc(-c2cccnc2)[nH]c(=O)c1CC(=O)N1CCN(C)CC1C` (stereo not drawn) [CBK304950] stands 100%; under `CCc1ccc2c(c1)C(CCNC(=O)c1cscc1C(F)(F)F)C(=O)N2` (stereo not drawn) [CBK304728], 82.5%; under `O=C(c1c(F)cccc1Cl)N1CCN(Cc2ccc3c(c2)OCO3)CC1` [CBK074724], 93.9%.
For `Cc1ccc(C(=O)CC(C(=O)O)c2c(C)[nH]c3ccccc23)cc1` (stereo not drawn) [CBK269337], the viability at 28.5 h, 10 µM was 96.1%.
Under `COc1ccc(Cl)cc1N1CCN(CC2CCCCC2)CC1` [CBK138336] stands 77.8%; under `COCCNC(=O)c1cc(-c2cc(C)oc2C)nc2c1cnn2C(C)C` [CBK305052], 101%.
Under `CC(=O)N1CCN(C(C(=O)O)c2c[nH]c3ccc(NC(=O)C(C)C)cc23)CC1` (stereo not drawn) [CBK286634] stands 89.7%; under `Cn1nc(C2CCN(C(=O)CC3CCCC3)CC2)c2cccnc21` [CBK284943], 111%.
Under `Cc1cc(C)c2c(CC(=O)N(C)CCN(C)C)coc2c1` [CBK282174] stands 106%.
`O=C(CCn1c2ccccc2c2ccccc21)N1CCn2cnnc2C1` [CBK283645]: the viability at 28.5 h, 10 µM was 90.4%.
Under `Fc1ccc(-c2cn(-c3ccc(OCc4ccccc4)c(F)c3)nn2)cc1` [CBK113121] stands 99%.
In the case of `COC(=O)CCC(=O)Nc1ccc(S(N)(=O)=O)cc1` [CBK261351], the viability at 28.5 h, 10 µM is 88.1%.
Under `O=C(c1ccncc1)N1CCCC1(CO)Cc1ccccc1` (stereo not drawn) [CBK288620] stands 96.5%; under `CC(C)NS(=O)(=O)c1ccc(OCC(=O)Nc2ccc3c(c2)OCO3)c(Cl)c1` [CBK267919], 92.5%.
Under `NCCCNCCOc1ccc(Cl)c(Cl)c1` [CBK268631C] stands 111%; under `CN1CCC2CN(CCCC(c3ccc(F)cc3)c3ccc(F)cc3)CCN2C1=O` (stereo not drawn) [CBK024865C], 89.9%; under `COc1cc(C(F)(F)F)c(-c2ncn[nH]2)cn1` [CBK006362], 101%.
Under `O=C(Nc1ccc(F)cc1)c1ccsc1NS(=O)(=O)Cc1ccccc1` [CBK042303] stands 82.8%; under `COc1ccnc(N2CCN(C(=O)C3(C#N)CCCCC3)CC2)n1` [CBK305739], 92.2%.
As for `O=C(CC1CC1)N1CCC2(CCN(Cc3ccccc3)C2)C1` (stereo not drawn) [CBK136825], the viability at 28.5 h, 10 µM worked out at 93.9%.
Under `Cc1[nH]c(=O)[nH]c(=O)c1CC(=O)NCC1CCN(c2ccccc2F)C1` (stereo not drawn) [CBK304325] stands 99.7%; under `CCCN1CCC(NC(=O)Cn2c(C3CC3)nc3ccccc32)CC1` [CBK304917], 89.2%; under `O=C(O)c1ccc(-c2c(Cl)cc([N+](=O)[O-])cc2Cl)o1` [CBK026623], 102%.
Under `Brc1ccc2c(c1)COC1(CN3CCC1CC3)O2` (stereo not drawn) [CBK105268] stands 107%; under `CCOC(=O)Cc1csc(NS(=O)(=O)c2cc(C)c(Cl)cc2Cl)n1` [CBK012872], 91.3%; under `NC(=O)CN1CC2(CCN(CCCCC3NC(=O)NC3=O)CC2)c2ccccc21` (stereo not drawn) [CBK126799], 95.9%.
Regarding `c1ccc(N2CCN(c3cccc(-c4ccco4)n3)CC2)nc1` [CBK037662], the viability at 28.5 h, 10 µM was 107%.
Under `Cc1cc(C)nc(SCc2csc(N)n2)n1` [CBK019838] stands 106%.
Regarding `COc1ccc2c(c1)CC(C(=O)N1CCc3sccc3C1c1cccs1)CO2` (stereo not drawn) [CBK285628], the viability at 28.5 h, 10 µM is 110%.
Under `C=CCn1c(Cc2csc(NC(=O)c3ccc([N+](=O)[O-])cc3)n2)n[nH]c1=S` [CBK295290] stands 96.2%; under `Cc1nc[nH]c1CN(CCCn1ccnc1)CC1CC=CCC1` (stereo not drawn) [CBK283218], 83%.
For the molecule `CSc1nc(O)c(C(c2cccc([N+](=O)[O-])c2)c2c(O)nc(SC)nc2O)c(O)n1` [CBK265370], the viability at 28.5 h, 10 µM was 80.5%.
For the molecule `Nc1ccc2ccc(-c3cccc(C(F)(F)F)c3)nc2n1` [CBK067629], the viability at 28.5 h, 10 µM stood at 97.5%.
Under `Nc1ccccc1Sc1ncccc1C(F)(F)F` [CBK093758] stands 86.2%; under `CCCn1cc(NC(=O)C2(c3ccccc3)CCOCC2)ccc1=O` [CBK304905], 90.1%.
Take `COc1ccc2[nH]c3c(c2c1)CCNC31CCN(CC(=O)C(C)(C)C)CC1` [CBK039471]: the viability at 28.5 h, 10 µM came to 98.1%.
Under `Cc1cc(NC(=O)CN2CCC(CNc3ccccn3)C2)on1` (stereo not drawn) [CBK305760] stands 89.2%.
As for `COc1cc(/C=N/c2ccc3oc(-c4cccc(I)c4)nc3c2)ccc1OC(=O)c1ccc(Cl)cc1Cl` [CBK261239], the viability at 28.5 h, 10 µM stood at 95.3%.
Under `Cc1ccc(C(=O)N2CN(C(=O)CN3CCOCC3)CC(C)(C)C2)cc1` [CBK039190] stands 105%.
Under `O=C(O)C1CC=CCC1C(=O)NCCCCc1ccccc1` (stereo not drawn) [CBK265460] stands 98.7%.
Under `OCC(O)/C=N/Nc1nc(Nc2ccccc2)nc(N2CCCCC2)n1` (stereo not drawn) [CBK262042] stands 107%; under `Clc1ccccc1COc1cccc(/C=N/Nc2nc(N3CCCC3)nc(N3CCCC3)n2)c1` [CBK019076], 89.8%.
